Square brackets hold non-standard residues; d marks the D form. Peptide text beside a SMILES is read from it.

The record followed here is ChEMBL document CHEMBL3580664, “Synthesis and Pharmacology of α/β(3)-Peptides Based on the Melanocortin Agonist Ac-His-dPhe-Arg-Trp-NH2 Sequence” (ACS Med Chem Lett, 2015).

For one experiment, the target named is Melanocortin receptor 5 (Mus musculus, UniProt P41149). Nature of the experiment: Agonist activity at mouse MC5 receptor expressed in HEK-293 cells assessed as cAMP response measured after 2 hrs incubation by cAMP Alphascreen assay. Format: functional, cell-based, HEK293.
Chain of Melanocortin receptor 5 (P41149 whole entry): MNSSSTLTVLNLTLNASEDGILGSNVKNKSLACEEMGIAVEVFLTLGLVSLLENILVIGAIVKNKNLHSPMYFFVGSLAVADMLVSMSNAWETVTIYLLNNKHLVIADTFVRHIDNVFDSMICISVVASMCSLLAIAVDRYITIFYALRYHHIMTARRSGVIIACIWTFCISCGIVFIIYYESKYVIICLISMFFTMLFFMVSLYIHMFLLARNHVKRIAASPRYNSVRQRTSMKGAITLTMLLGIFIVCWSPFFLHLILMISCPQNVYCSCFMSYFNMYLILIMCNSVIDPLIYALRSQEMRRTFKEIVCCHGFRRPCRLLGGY
Another experiment has as its target Melanocortin receptor 4 (Mus musculus, UniProt P56450). Description: Agonist activity at mouse MC4 receptor expressed in HEK-293 cells assessed as cAMP response measured after 2 hrs incubation by cAMP Alphascreen assay. Format: functional, cell-based, HEK293.
The species named for the next experiment is Mus musculus. Nature of the experiment: Selectivity ratio for mouse MC3 receptor over mouse MC4 receptor.
The next experiment concerns the target Melanocortin receptor 3 (Mus musculus, UniProt P33033). Nature of the experiment: Agonist activity at mouse MC3 receptor expressed in HEK-293 cells assessed as cAMP response measured after 2 hrs incubation by cAMP Alphascreen assay. Format: functional, cell-based, HEK293.
For experiment [1], the target named is Melanocyte-stimulating hormone receptor (Mus musculus, UniProt Q01727). Nature of the experiment: Agonist activity at mouse MC1 receptor expressed in HEK-293 cells assessed as cAMP response measured after 2 hrs incubation by cAMP Alphascreen assay. The format is functional, cell-based, HEK293.
Chain of Melanocyte-stimulating hormone receptor (Q01727 whole entry): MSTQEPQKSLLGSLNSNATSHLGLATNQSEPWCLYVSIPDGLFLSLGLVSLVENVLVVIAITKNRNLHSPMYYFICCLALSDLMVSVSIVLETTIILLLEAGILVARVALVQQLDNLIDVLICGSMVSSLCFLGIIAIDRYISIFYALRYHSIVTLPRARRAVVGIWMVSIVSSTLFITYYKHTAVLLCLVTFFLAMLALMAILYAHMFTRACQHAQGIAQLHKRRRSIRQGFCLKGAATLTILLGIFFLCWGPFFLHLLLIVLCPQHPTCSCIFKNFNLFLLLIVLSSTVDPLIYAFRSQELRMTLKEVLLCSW
Experiment [2] has as its target Melanocortin receptor 4 (Mus musculus) (UniProt P56450). Description: Agonist activity at mouse MC4 receptor expressed in HEK-293 cells assessed as cAMP response measured at 100 uM after 2 hrs incubation by cAMP Alphascreen assay relative to control. Format: functional, cell-based. As to conditions: HEK293.
In experiment [3] the target is Melanocortin receptor 5 (Mus musculus) (UniProt P41149). Description: Agonist activity at mouse MC5 receptor expressed in HEK-293 cells assessed as cAMP response measured at 100 uM after 2 hrs incubation by cAMP Alphascreen assay relative to control. Format: functional, cell-based. The note with it: HEK293.
Chain of Melanocortin receptor 5 (Mus musculus) (P41149 whole entry): as the sequence (P41149 whole entry) above
Experiment [4] deals with Melanocortin receptor 3 (Mus musculus) (UniProt P33033). Nature of the experiment: Agonist activity at mouse MC3 receptor expressed in HEK-293 cells assessed as cAMP response measured at 100 uM after 2 hrs incubation by cAMP Alphascreen assay relative to control. The format is functional, cell-based. The note with it: HEK293.
Chain of Melanocortin receptor 3 (Mus musculus) (P33033 whole entry): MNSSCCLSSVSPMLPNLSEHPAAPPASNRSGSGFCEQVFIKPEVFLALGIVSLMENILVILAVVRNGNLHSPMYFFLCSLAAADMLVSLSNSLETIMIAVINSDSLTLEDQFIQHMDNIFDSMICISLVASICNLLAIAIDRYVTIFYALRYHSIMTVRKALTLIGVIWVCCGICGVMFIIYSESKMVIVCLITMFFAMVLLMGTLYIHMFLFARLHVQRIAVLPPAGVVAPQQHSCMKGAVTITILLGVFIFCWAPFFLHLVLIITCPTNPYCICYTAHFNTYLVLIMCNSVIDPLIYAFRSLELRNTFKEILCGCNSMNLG
Experiment [5] has as its target Melanocyte-stimulating hormone receptor (Mus musculus) (UniProt Q01727). Nature of the experiment: Agonist activity at mouse MC1 receptor expressed in HEK-293 cells assessed as cAMP response measured at 100 uM after 2 hrs incubation by cAMP Alphascreen assay relative to control. The note with it: HEK293. The format is functional, cell-based.

Chain of Melanocortin receptor 3 (P33033 whole entry): as above
Chain of Melanocortin receptor 4 (P56450 whole entry): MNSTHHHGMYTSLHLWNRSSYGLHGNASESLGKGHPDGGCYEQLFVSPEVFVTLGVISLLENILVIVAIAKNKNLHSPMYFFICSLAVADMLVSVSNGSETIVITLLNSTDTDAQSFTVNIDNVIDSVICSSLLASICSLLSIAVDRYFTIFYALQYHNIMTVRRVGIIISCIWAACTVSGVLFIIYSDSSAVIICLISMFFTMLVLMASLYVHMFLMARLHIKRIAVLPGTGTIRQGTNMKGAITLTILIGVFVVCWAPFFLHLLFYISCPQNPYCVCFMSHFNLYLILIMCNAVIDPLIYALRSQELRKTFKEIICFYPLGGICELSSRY
Chain of Melanocortin receptor 4 (Mus musculus) (P56450 whole entry): as above
Chain of Melanocyte-stimulating hormone receptor (Mus musculus) (Q01727 whole entry, looked up): as the sequence (Q01727 whole entry) above

For the molecule `CC(=O)N[C@@H](Cc1c[nH]cn1)C(=O)N[C@@H](Cc1ccccc1)C(=O)N[C@@H](CCCN=C(N)N)C(=O)N[C@@H](Cc1c[nH]c2ccccc12)C(N)=O`, the figures for the EC50 at Melanocortin receptor 5 and at Melanocortin receptor 4 were 70 nM and 1210 nM, respectively.
`CC(=O)N[C@@H](Cc1c[nH]cn1)C(=O)N[C@H](Cc1ccccc1)C(=O)N[C@@H](CCCNC(=N)N)CC(=O)N[C@@H](Cc1c[nH]c2ccccc12)C(N)=O`: in the experiment listed under Mus musculus, the Selectivity ratio is 12. The EC50 came out at 854 nM at Melanocortin receptor 3, 73 nM on Melanocortin receptor 5, 37 nM in experiment [1] and 70 nM on Melanocortin receptor 4.
As for `CC(=O)N[C@@H](Cc1c[nH]cn1)C(=O)N[C@@H](CC(=O)N[C@@H](CCCNC(=N)N)C(=O)N[C@@H](Cc1c[nH]c2ccccc12)C(N)=O)Cc1ccccc1`, the Activity in [2] came to 60%; in [3] it was 60%; in experiment [4] it was 50%. Besides, the EC50 in experiment [1] is 7030 nM.
As to `CC(=O)N[C@@H](Cc1ccccc1)C(=O)N[C@@H](CCCN=C(N)N)C(=O)N[C@@H](Cc1c[nH]c2ccccc12)C(N)=O` (Ac-Phe-Arg-Trp-NH2), the Activity in experiment [5] turned out to be 60%.
`CC(=O)N[C@@H](Cc1cnc[nH]1)C(=O)N[C@H](Cc1ccccc1)C(=O)N[C@@H](CCCN=C(N)N)C(=O)N[C@@H](Cc1c[nH]c2ccccc12)C(N)=O`: the EC50 on Melanocortin receptor 4 amounted to 5.6 nM.
As to `CC(=O)N[C@H](Cc1ccccc1)C(=O)N[C@@H](CCCN=C(N)N)C(=O)N[C@@H](Cc1c[nH]c2ccccc12)C(N)=O` (Ac-[dF]-Arg-Trp-NH2), the Activity in experiment [2] worked out at 70%; in experiment [3], 70%; in experiment [4], 40%. In addition, in experiment [1], the EC50 stood at 10000 nM.
For `CC(=O)N[C@@H](Cc1c[nH]cn1)C(=O)N[C@H](Cc1ccccc1)C(=O)N[C@@H](CCCNC(=N)N)C(=O)N[C@H](CC(N)=O)Cc1c[nH]c2ccccc12`, the Selectivity ratio in the experiment listed under Mus musculus turned out to be 35. In addition, the EC50 at Melanocortin receptor 3 is 415 nM; on Melanocortin receptor 5, 5.6 nM; in experiment [1] it was 33 nM; at Melanocortin receptor 4, 12 nM.
Regarding `CC(=O)N[C@@H](Cc1ccccc1)C(=O)N[C@@H](CCCNC(=N)N)C(=O)N[C@@H](Cc1c[nH]c2ccccc12)C(N)=O` (Ac-Phe-Arg-Trp-NH2), the EC50 on Melanocortin receptor 3, at Melanocortin receptor 5 and on Melanocortin receptor 4 was above 100000 nM in each case.
With `CC(=O)N[C@@H](Cc1c[nH]cn1)C(=O)N[C@H](CC(=O)N[C@@H](CCCNC(=N)N)C(=O)N[C@@H](Cc1c[nH]c2ccccc12)C(N)=O)Cc1ccccc1`, the EC50 came to 4810 nM at Melanocortin receptor 5, 6580 nM in experiment [1] and 7680 nM at Melanocortin receptor 4. For the same molecule, in [4], the Activity stood at 70%.
